Patent publication US7972800B2, “Screening method for binding property or signal transduction alterations” (Takeda Pharmaceutical Company Limited, priority 2003, dated 2011)

Tests used:
[1] = test system: CHO cells where the receptor was not expressed or GPCR other than GPR39 was expressed; type: cell-based; details: FLIPR; control cells
mouse GPR39 = target: T1, mouse GPR39 (Mus musculus, UniProt Q5U431, T447P); type: cell-based; details: FLIPR, Fluo-3AM (FIG. 14 through FIG. 18)
T1 construct: expressed in transfected cells; host or cells: CHO cells, vector pAKKO-111H
T1 sequence (Q5U431 1-456 T447P): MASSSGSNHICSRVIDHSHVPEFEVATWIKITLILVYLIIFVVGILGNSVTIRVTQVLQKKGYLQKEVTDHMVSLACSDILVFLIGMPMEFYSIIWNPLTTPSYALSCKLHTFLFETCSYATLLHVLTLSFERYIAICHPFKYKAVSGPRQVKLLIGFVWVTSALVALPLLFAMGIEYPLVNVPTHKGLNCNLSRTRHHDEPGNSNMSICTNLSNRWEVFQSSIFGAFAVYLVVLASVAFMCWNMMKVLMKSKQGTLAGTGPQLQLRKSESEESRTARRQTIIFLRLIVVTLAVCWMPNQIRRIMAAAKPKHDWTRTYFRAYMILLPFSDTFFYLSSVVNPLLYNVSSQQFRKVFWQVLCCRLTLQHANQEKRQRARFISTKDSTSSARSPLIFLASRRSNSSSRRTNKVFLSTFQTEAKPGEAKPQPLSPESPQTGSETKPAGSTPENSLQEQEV
Protocol: (§1) Using the CHO cell line where rat GPR39 was stably expressed, the agonist activity of metal ions was detected using FLIPR in terms of the intracellular calcium-increasing reaction as an indicator. The CHO cell line used, wherein rat GPR39 was stably expressed, was cultured in HAM's αMEM (Invitrogen Corp.) containing 10% calf fetal serum (Invitrogen Corp.). On the day before the assay was conducted, the human GPR39-expressing CHO cell line was cultured in a culture flask to reach a confluent state. After washing with PBS, the cells were scraped off using trypsin and centrifuged for recovery. The cells were then suspended in medium and the suspension was adjusted to 3×10^5 cells/ml. Then, the suspension was dispensed onto a black walled 96-well plate (Costar) in 100 μl each per well, followed by incubation overnight in a CO2 incubator.
(§2) On the day when the assay was conducted, various test samples were added to the cells and the changes of intracellular calcium levels in this case were determined by FLIPR (Molecular Device). In order to determine the changes in intracellular calcium levels on FLIPR, the cells were pre-treated by the following procedures. First, for the purpose of adding a fluorescent dye Fluo-3AM (DOJIN) to the cells or washing the cells immediately before the FLIPR assay, an assay buffer was prepared. A solution was prepared by adding 20 ml of 1M HEPES (pH 7.4) (DOJIN) to 1000 ml of HBSS (Invitrogen Corp.) (hereinafter HBSS/HEPES solution), to which solution was added 10 ml of a solution mixture obtained by dissolving 710 mg of Probenecid (Sigma) in 5 ml of 1N NaOH and further adding 5 ml of HBSS/HEPES solution thereto. The resulting solution was used as the assay buffer. Next, 50 μg of Fluo-3AM was dissolved in 21 μl of DMSO (DOJIN) and an equal volume of 20% Pluronic acid (Molecular Probes) was added to and mixed with the solution. The mixture was then added to 10.6 ml of the assay buffer supplemented with 105 μl of fetal calf serum to prepare a fluorescent dye solution. The medium for the CHO cells where human GPR39 was stably expressed was removed. Immediately thereafter, the fluorescent dye solution was dispensed in 100 μl each/well and the cells were incubated in a CO2 incubator for an hour so that the fluorescent dye was taken up into the cells. The cells after the incubation was washed with the assay buffer described above and set on FLIPR. A test sample to be added to the CHO cells where rat GPR39 was stably expressed was prepared using the assay buffer and set on FLIPR at the same time. Following the pre-treatment above, the changes in intracellular calcium levels after the addition of each test sample were determined by FLIPR.
Using the CHO cell line where mouse GPR39 was stably expressed, the agonist activity of metal ions was detected on FLIPR in accordance with the procedures described in EXAMPLE 5, in terms of the intracellular calcium-increasing reaction as an indicator.

human GPR39 = target: T2, human GPR39 (Homo sapiens, UniProt O43194); type: cell-based; set-up: expressed in transfected cells; host or cells: CHO cells, vector pAKKO-111H; details: FLIPR, Fluo-3AM; metal salt added, 10-300 μM (FIGS. 1-4)
T2 sequence (O43194 1-453): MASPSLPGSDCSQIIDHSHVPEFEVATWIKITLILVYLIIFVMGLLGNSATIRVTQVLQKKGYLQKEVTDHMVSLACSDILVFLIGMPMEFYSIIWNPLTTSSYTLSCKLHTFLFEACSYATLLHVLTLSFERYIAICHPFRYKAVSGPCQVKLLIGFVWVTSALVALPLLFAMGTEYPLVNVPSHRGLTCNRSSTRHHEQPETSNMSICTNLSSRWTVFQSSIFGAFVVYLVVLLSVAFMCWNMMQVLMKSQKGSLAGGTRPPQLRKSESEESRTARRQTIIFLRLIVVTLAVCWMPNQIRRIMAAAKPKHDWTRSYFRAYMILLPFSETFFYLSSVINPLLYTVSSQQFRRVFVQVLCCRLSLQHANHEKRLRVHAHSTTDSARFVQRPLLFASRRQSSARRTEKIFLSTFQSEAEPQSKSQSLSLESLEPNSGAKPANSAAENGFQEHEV
Protocol: The human GPR39-GFP expression vector-transfected CHO cell line produced in EXAMPLE 1 (CHO/hGPR39-GFP) was diluted in 3×10^4 cells/100 μl. The dilution was dispensed onto a Black walled 96-well plate (Costar) in 100 μl each per well, followed by incubation overnight in a CO2 incubator. Changes in intracellular calcium levels were determined by the following method using FLIPR (Molecular Device). In 21 μl of DMSO (DOJIN), 50 μg of Fluo-3AM (DOJIN) was dissolved and an equal volume of 20% Pluronic acid (Molecular Probes) was added to the solution. After mixing them, the resulting mixture was added to 10.6 ml of assay buffer [prepared by adding 20 ml of 1M HEPES (pH 7.4) (DOJIN) to HBSS (Invitrogen Corp.) and further adding to the solution 10 ml of a solution mixture, which mixture was prepared by dissolving 710 mg of Probenecid (Sigma) in 5 ml of 1N NaOH and then adding thereto 5 ml of the HBSS/HEPES solution above] supplemented with 105 μl of fetal calf serum to prepare a fluorescent dye solution. The medium in the cell plate was removed. Immediately thereafter, the fluorescent dye solution was dispensed in 100 μl each/well and the cells were incubated in a CO2 incubator for an hour so that the fluorescent dye was taken up into the cells. The cells after the incubation were washed with the assay buffer described above and set on FLIPR. Compounds of metal elements to be added to the cells were diluted to the respective concentration with the assay buffer. The dilutions were dispensed onto plates for ligands and set on FLIPR. Following the pre-treatment above, changes in intracellular calcium levels after addition of metal elements were determined by FLIPR to study agonist activities.

rat GPR39 = type: cell-based; details: FLIPR, Fluo-3AM (FIG. 9 through FIG. 13)
Protocol: as §1, §2

[2] = test system: bladder (micturition) of conscious rats; assay: Cystometry in conscious rats with intravesical infusion; type: in vivo, rat; details: female SD rats, protamine sulfate 10 mg/mL in PBS infused into the bladder for an hour
Protocol: Female SD rats of 9-10 weeks old were anaesthetized by intramuscular injection with 0.1 ml/100 g of a solution obtained by mixing ketamine (50 mg/mL) and xylazine (20 mg/mL) in 5:1. The bladder was then exposed via a midline incision and a hole was made with a 20-G needle to insert a polyethylene tube (PE-50), which tube was sutured to the bladder with cotton thread. The polyethylene tube cannulated into the bladder was cut at a length of about 1 cm, which was connected to a silicon tube (No. 00) and exposed to the dorsum through the skin. The animals were housed in individual cages until they were used for the experiments.
One day after the surgery, the animal was anesthetized with halothane and placed in Ballman cages under restricted conditions. After a three-way cock was connected to the tube cannulated into the bladder, a saline infusion tube was connected to a cystometry tube (resistance to infusion). An electronic scale was placed under the Ballman cages and the micturition volume was measured at the same time. When the anesthetic completely worn off, the infusion of saline into the bladder commenced and the bladder pressure and micturition volume were recorded on a personal computer via an A-D converter (MP-100, BIOPAC Systems) and analyzed using a dedicated software (AcqKnowledge, BIOPAC Systems).
Saline was infused into the bladder at the rate of 6 ml/hr and the infusion was continued for 1 or 2 hours until stable micturition was recorded. In order to enhance the permeability of a drug into the bladder, protamine sulfate (10 mg/mL in PBS) was infused into the bladder for an hour (Chuang Y, et. al., 2003, Urology, 63, 664-670). […] Then, saline was reinfused into the bladder and micturition was recorded at least 2 hours until protamine was completely washed off. […] Mean micturition intervals during from about 30 minutes to about 60 minutes after starting the infusion of CuCl2 were calculated to find a ratio to mean micturition intervals for about 30 minutes before the infusion of CuCl2 (% of the pre-value).

Row | Compound | intracellular calcium response in CHO cells without the receptor or with GPCR other than GPR39 [1] | intracellular calcium levels of CHO/mGPR39 (mouse GPR39) | intracellular calcium levels of CHO/hGPR39-GFP (human GPR39) | intracellular calcium levels of CHO/rGPR39 (rat GPR39) | micturition intervals compared to those prior to the infusion [2]
1 | [Cl][Cd][Cl] [cadmium chloride] | no such response was observed | dose-dependently increased | dose-dependently increased | dose-dependently increased | –
2 | [Cl][Co][Cl] [cobalt chloride] | – | dose-dependently increased | – | dose-dependently increased | –
3 | [Cl-].[Cl-].[Zn+2] [zinc chloride] | no such response was observed | dose-dependently increased | dose-dependently increased | dose-dependently increased | –
4 | protamine sulfate | – | – | – | – | Any substantial change in micturition intervals was noted
